Test results taken from US20250228239A1, “MOLECULES HAVING PESTICIDAL UTILITY, AND INTERMEDIATES, COMPOSITIONS, AND PROCESSES, RELATED THERETO” (priority 2024, published 2025).

What was measured:
[1] = test system: Beet Armyworm (Spodoptera exigua, LAPHEG); experiment: Bioassays on Beet Armyworm (BAW), 128-well diet tray assay; assay type: in vivo; settings: Spodoptera exigua; Beet Armyworm; rating class; read-out: BAW
Outline: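 Percent larval mortality, averaged across eight wells, scored after five to seven days at 25° C. under 14:10 light-dark. Each well held one to five second instars feeding on diet dosed at 50 μg/cm^2 with compound from 90:10 acetone-water, solvent dried off.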

[2] = test system: Cabbage Looper (Trichoplusia ni, TRIPNI); experiment: Bioassays on Cabbage Looper (CL), 128-well diet tray assay; assay type: in vivo; settings: Trichoplusia ni; Cabbage Looper; rating class; read-out: CL
Outline: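 Activity is mean percent mortality over eight wells of second-instar larvae exposed to diet treated at 50 μg/cm^2 for 5–7 days at 25° C.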

SMILES	pest or weed control at 50 µg/cm2 [1] [%]	pest or weed control at 50 µg/cm2 [2] [%]
O=C(Nc1cc(NC(=O)C(F)F)c(F)cc1F)c1cc(NC(=O)[C@H]2[C@H](c3ccc(Cl)c(Cl)c3)C2(Cl)Cl)cc(F)c1Cl [F1402, 2-Chloro-5-((1R,3R)-2,2-dichloro-3-(3,4-dichlorophenyl)cyclopropane-1-carboxamido)-N-(5-(2,2-difluoroacetamido)-2,4-difluorophenyl)-3-fluorobenzamide]	50 to 100	50 to 100
O=C(Nc1cc(NC(=O)C(F)(F)F)c(F)cc1F)c1cc(NC(=O)[C@H]2[C@H](c3ccc(Cl)c(Cl)c3)C2(Cl)Cl)cc(F)c1Cl [F1403, 2-Chloro-5-((1R,3R)-2,2-dichloro-3-(3,4-dichlorophenyl)cyclopropane-1-carboxamido)-N-(2,4-difluoro-5-(2,2,2-trifluoroacetamido)phenyl)-3-fluorobenzamide]	50 to 100	50 to 100
O=C(Nc1cc(NC(=O)C(F)F)c(F)cc1F)c1cc(NC(=O)[C@H]2[C@H](c3cc(Cl)c(Cl)c(Cl)c3)C2(Cl)Cl)cc(F)c1Cl [F1404, 2-Chloro-5-((1R,3R)-2,2-dichloro-3-(3,4,5-trichlorophenyl)cyclopropane-1-carboxamido)-N-(5-(2,2-difluoroacetamido)-2,4-difluorophenyl)-3-fluorobenzamide]	50 to 100	50 to 100
O=C(Nc1cc(NC(=O)C(F)(F)F)c(F)cc1F)c1cc(NC(=O)[C@H]2[C@H](c3cc(Cl)c(Cl)c(Cl)c3)C2(Cl)Cl)cc(F)c1Cl [F1405, 2-Chloro-5-((1R,3R)-2,2-dichloro-3-(3,4,5-trichlorophenyl)cyclopropane-1-carboxamido)-N-(2,4-difluoro-5-(2,2,2-trifluoroacetamido)phenyl)-3-fluorobenzamide]	50 to 100	50 to 100
O=C(Nc1cc(NC(=O)C(F)F)c(F)cc1F)c1cc(NC(=O)[C@H]2[C@H](c3ccc(F)c(C(F)(F)F)c3)C2(Cl)Cl)cc(F)c1Cl [F1406, 2-Chloro-5-((1R,3R)-2,2-dichloro-3-(4-fluoro-3-(trifluoromethyl)phenyl)cyclopropane-1-carboxamido)-N-(5-(2,2-difluoroacetamido)-2,4-difluorophenyl)-3-fluorobenzamide]	50 to 100	50 to 100
O=C(Nc1cc(NC(=O)C(F)(F)F)c(F)cc1F)c1cc(NC(=O)[C@H]2[C@H](c3ccc(F)c(C(F)(F)F)c3)C2(Cl)Cl)cc(F)c1Cl [F1407, 2-Chloro-5-((1R,3R)-2,2-dichloro-3-(4-fluoro-3-(trifluoromethyl)phenyl)cyclopropane-1-carboxamido)-N-(2,4-difluoro-5-(2,2,2-trifluoroacetamido)phenyl)-3-fluorobenzamide]	50 to 100	50 to 100
O=C(Nc1cc(NC(=O)C(F)F)c(F)cc1F)c1cc(NC(=O)[C@H]2[C@H](c3cc(Cl)cc(Cl)c3)C2(Cl)Cl)cc(F)c1Cl [F1408, 2-Chloro-5-((1R,3R)-2,2-dichloro-3-(3,5-dichlorophenyl)cyclopropane-1-carboxamido)-N-(5-(2,2-difluoroacetamido)-2,4-difluorophenyl)-3-fluorobenzamide]	50 to 100	50 to 100
O=C(Nc1cc(NC(=O)C(F)(F)F)c(F)cc1F)c1cc(NC(=O)[C@H]2[C@H](c3cc(Cl)cc(Cl)c3)C2(Cl)Cl)cc(F)c1Cl [F1409, 2-Chloro-5-((1R,3R)-2,2-dichloro-3-(3,5-dichlorophenyl)cyclopropane-1-carboxamido)-N-(2,4-difluoro-5-(2,2,2-trifluoroacetamido)phenyl)-3-fluorobenzamide]	50 to 100	50 to 100
O=C(Nc1ccc(F)c(NC(=O)C(F)F)c1F)c1cc(NC(=O)[C@H]2[C@H](c3ccc(Cl)c(Br)c3)C2(Cl)Cl)ccc1Cl [F1411, 5-((1R,3R)-3-(3-Bromo-4-chlorophenyl)-2,2-dichlorocyclopropane-1-carboxamido)-2-chloro-N-(3-(2,2-difluoroacetamido)-2,4-difluorophenyl)benzamide]	50 to 100	50 to 100
CC(=O)Nc1c(Cl)ccc(NC(=O)c2cc(NC(=O)[C@H]3[C@H](c4ccc(F)c(C(F)(F)F)c4)C3(Cl)Cl)ccc2Cl)c1Cl [F1412, N-(3-Acetamido-2,4-dichlorophenyl)-2-chloro-5-((1R,3R)-2,2-dichloro-3-(4-fluoro-3-(trifluoromethyl)phenyl)cyclopropane-1-carboxamido)benzamide]	50 to 100	50 to 100
Cc1cc(NC(=O)[C@H]2[C@H](c3ccc(Cl)c(Cl)c3)C2(Cl)Cl)cc(C(=O)Nc2c(F)ccc(N)c2F)c1Cl [F1426, N-(3-Amino-2,6-difluorophenyl)-2-chloro-5-((1R,3R)-2,2-dichloro-3-(3,4-dichlorophenyl)cyclopropane-1-carboxamido)-3-methylbenzamide]	50 to 100	50 to 100
Cc1cc(NC(=O)[C@H]2[C@H](c3cc(Cl)c(Cl)c(Cl)c3)C2(Cl)Cl)cc(C(=O)Nc2c(F)ccc(N)c2F)c1Cl [F1427, N-(3-Amino-2,6-difluorophenyl)-2-chloro-5-((1R,3R)-2,2-dichloro-3-(3,4,5-trichlorophenyl)cyclopropane-1-carboxamido)-3-methylbenzamide]	50 to 100	50 to 100
Cc1cc(NC(=O)[C@H]2[C@H](c3ccc(F)c(C(F)(F)F)c3)C2(Cl)Cl)cc(C(=O)Nc2c(F)ccc(N)c2F)c1Cl [F1428, N-(3-Amino-2,6-difluorophenyl)-2-chloro-5-((1R,3R)-2,2-dichloro-3-(4-fluoro-3-(trifluoromethyl)phenyl)cyclopropane-1-carboxamido)-3-methylbenzamide]	50 to 100	50 to 100
Cc1cc(NC(=O)[C@H]2[C@H](c3ccc(Cl)c(Cl)c3)C2(Cl)Cl)cc(C(=O)Nc2c(F)ccc(NC(=O)C(F)F)c2F)c1Cl [F1429, 2-Chloro-5-((1R,3R)-2,2-dichloro-3-(3,4-dichlorophenyl)cyclopropane-1-carboxamido)-N-(3-(2,2-difluoroacetamido)-2,6-difluorophenyl)-3-methylbenzamide]	50 to 100	50 to 100
Cc1cc(NC(=O)[C@H]2[C@H](c3ccc(Cl)c(Cl)c3)C2(Cl)Cl)cc(C(=O)Nc2c(F)ccc(NC(=O)C(F)(F)F)c2F)c1Cl [F1430, 2-Chloro-5-((1R,3R)-2,2-dichloro-3-(3,4-dichlorophenyl)cyclopropane-1-carboxamido)-N-(2,6-difluoro-3-(2,2,2-trifluoroacetamido)phenyl)-3-methylbenzamide]	50 to 100	50 to 100
Cc1cc(NC(=O)[C@H]2[C@H](c3cc(Cl)c(Cl)c(Cl)c3)C2(Cl)Cl)cc(C(=O)Nc2c(F)ccc(NC(=O)C(F)F)c2F)c1Cl [F1431, 2-Chloro-5-((1R,3R)-2,2-dichloro-3-(3,4,5-trichlorophenyl)cyclopropane-1-carboxamido)-N-(3-(2,2-difluoroacetamido)-2,6-difluorophenyl)-3-methylbenzamide]	50 to 100	50 to 100
Cc1cc(NC(=O)[C@H]2[C@H](c3cc(Cl)c(Cl)c(Cl)c3)C2(Cl)Cl)cc(C(=O)Nc2c(F)ccc(NC(=O)C(F)(F)F)c2F)c1Cl [F1432, 2-Chloro-5-((1R,3R)-2,2-dichloro-3-(3,4,5-trichlorophenyl)cyclopropane-1-carboxamido)-N-(2,6-difluoro-3-(2,2,2-trifluoroacetamido)phenyl)-3-methylbenzamide]	50 to 100	50 to 100
CC(=O)Nc1c(F)ccc(NC(=O)c2cc(NC(=O)[C@H]3[C@H](c4cc(Cl)c(Cl)c(Cl)c4)C3(Cl)Cl)cc(F)c2F)c1F [F1433, N-(3-Acetamido-2,4-difluorophenyl)-5-((1R,3R)-2,2-dichloro-3-(3,4,5-trichlorophenyl)cyclopropane-1-carboxamido)-2,3-difluorobenzamide]	50 to 100	50 to 100
Cc1cc(NC(=O)[C@H]2[C@H](c3ccc(Cl)c(Cl)c3)C2(Cl)Cl)cc(C(=O)Nc2ccc(F)c(N)c2F)c1Cl [F1446, N-(3-Amino-2,4-difluorophenyl)-2-chloro-5-((1R,3R)-2,2-dichloro-3-(3,4-dichlorophenyl)cyclopropane-1-carboxamido)-3-methylbenzamide]	50 to 100	50 to 100
Cc1cc(NC(=O)[C@H]2[C@H](c3cc(Cl)c(Cl)c(Cl)c3)C2(Cl)Cl)cc(C(=O)Nc2ccc(F)c(N)c2F)c1Cl [F1449, N-(3-Amino-2,4-difluorophenyl)-2-chloro-5-((1R,3R)-2,2-dichloro-3-(3,4,5-trichlorophenyl)cyclopropane-1-carboxamido)-3-methylbenzamide]	50 to 100	50 to 100
Cc1cc(NC(=O)[C@H]2[C@H](c3ccc(F)c(C(F)(F)F)c3)C2(Cl)Cl)cc(C(=O)Nc2ccc(F)c(N)c2F)c1Cl [F1458, N-(3-Amino-2,4-difluorophenyl)-2-chloro-5-((1R,3R)-2,2-dichloro-3-(4-fluoro-3-(trifluoromethyl)phenyl)cyclopropane-1-carboxamido)-3-methylbenzamide]	50 to 100	50 to 100
Nc1c(F)ccc(NC(=O)c2cc(NC(=O)[C@H]3[C@H](c4ccc(Cl)c(Cl)c4)C3(Cl)Cl)ccc2F)c1F [F1459, N-(3-Amino-2,4-difluorophenyl)-5-((1R,3R)-2,2-dichloro-3-(3,4-dichlorophenyl)cyclopropane-1-carboxamido)-2-fluorobenzamide]	50 to 100	50 to 100
